From US20250041373A1, “EXTRACTION METHOD OF HIBISCUS SABDARIFFA L. TAITUNG NO. 6, HIBISCUS SABDARIFFA L. TAITUNG NO. 6 EXTRACT USING THE SAME, AND USES THEREOF” (WEL-BLOOM BIO-TECH CORPORATION, priority 2023, published 2025)

System: B16-F10 melanoma cells
Experiment: melanin content analysis in α-MSH-treated B16-F10 melanoma cells
Type: cell-based
Details: co-treatment with 500 nM α-MSH; positive control, concentration not given; FIG. 6
Procedure: Further, in the present embodiment, an ability of the Hibiscus sabdariffa L. ‘TAITUNG NO. 6’ extract to inhibit melanin production is evaluated by a melanin content analysis, and a method thereof is as follows. B16-F10 melanoma cells (1×10^5) are seeded in a 24-well culture plate and treated with 500 nM α-melanocyte stimulating hormone (α-MSH) at 37° C. for 24 hours. Then, these cells are treated with various concentrations of the Hibiscus sabdariffa L. ‘TAITUNG NO. 6’ extract for 48 hours, and are treated with trypsin after being rinsed with PBS. A cell pellet is collected by centrifugation at 10,000 g for 20 minutes at a room temperature, and is then lysed with 1N NaOH for 60 minutes. The melanin content is analyzed by comparing an absorbance value of a test sample at 405 nm with a standard curve obtained by using a synthetic melanin.

Question: How did the “melanin content of the melanoma cells” value turn out when `O=c1cc(CO)occ1O` [kojic acid] was run?
Answer: Its value is “significantly decreased”.
